From ChEMBL document CHEMBL4325865, “Optimization of a fragment linking hit toward Dengue and Zika virus NS5 methyltransferases inhibitors” (Eur J Med Chem, 2019) come the findings set out here.

For series [1], the target named is Genome polyprotein (West Nile virus, UniProt P06935). Briefly: Inhibition of WNV 2'-O-MTase assessed as reduction in [3H]AdoMet transfer on to capped GpppAC4 RNA after 30 mins by microbeta liquid scintillation counting method.
The target in series [2] is Genome polyprotein (Zika virus, UniProt Q32ZE1). Briefly: Inhibition of ZIKV 2'-O-MTase assessed as reduction in [3H]AdoMet transfer on to capped GpppAC4 RNA after 30 mins by microbeta liquid scintillation counting method.
In the next series the target is Nonstructural protein 5 (Dengue virus, UniProt V5TFZ2). Nature of the series: Inhibition of DENV3 2'-O-MTase assessed as reduction in [3H]AdoMet transfer on to capped GpppAC4 RNA after 30 mins by microbeta liquid scintillation counting method. On the set-up: species or system dengue virus type 3.
The next series concerns Vero C1008. Briefly: Cytotoxicity against African green monkey Vero E6 cells up to 100 uM. It counts as cell-based. Conditions: chlorocebus sabaeus.
Another series concerns Zika virus. Briefly: Antiviral activity against ZIKV H/PF/2013 infected in African green monkey Vero E6 cells assessed as reduction in viral replication up to 20 uM by RT-PCR analysis. It counts as functional, organism-based. Conditions: Vero C1008.
For another series, the system named is dengue virus type 2. Briefly: Antiviral activity against DENV2 CNR 25679 infected in African green monkey Vero E6 cells assessed as reduction in viral replication up to 20 uM by RT-PCR analysis. It counts as functional, organism-based. Conditions: Vero C1008.
The nature of series [3]: Cytotoxicity against African green monkey Vero E6 cells. It counts as cell-based. Conditions: chlorocebus sabaeus, Vero E6 cells (Vero C1008).

The source made the active and inactive calls. The calls are words filed in the database; no cut-off is given here.

Nonstructural protein 5, sequence (V5TFZ2 whole entry): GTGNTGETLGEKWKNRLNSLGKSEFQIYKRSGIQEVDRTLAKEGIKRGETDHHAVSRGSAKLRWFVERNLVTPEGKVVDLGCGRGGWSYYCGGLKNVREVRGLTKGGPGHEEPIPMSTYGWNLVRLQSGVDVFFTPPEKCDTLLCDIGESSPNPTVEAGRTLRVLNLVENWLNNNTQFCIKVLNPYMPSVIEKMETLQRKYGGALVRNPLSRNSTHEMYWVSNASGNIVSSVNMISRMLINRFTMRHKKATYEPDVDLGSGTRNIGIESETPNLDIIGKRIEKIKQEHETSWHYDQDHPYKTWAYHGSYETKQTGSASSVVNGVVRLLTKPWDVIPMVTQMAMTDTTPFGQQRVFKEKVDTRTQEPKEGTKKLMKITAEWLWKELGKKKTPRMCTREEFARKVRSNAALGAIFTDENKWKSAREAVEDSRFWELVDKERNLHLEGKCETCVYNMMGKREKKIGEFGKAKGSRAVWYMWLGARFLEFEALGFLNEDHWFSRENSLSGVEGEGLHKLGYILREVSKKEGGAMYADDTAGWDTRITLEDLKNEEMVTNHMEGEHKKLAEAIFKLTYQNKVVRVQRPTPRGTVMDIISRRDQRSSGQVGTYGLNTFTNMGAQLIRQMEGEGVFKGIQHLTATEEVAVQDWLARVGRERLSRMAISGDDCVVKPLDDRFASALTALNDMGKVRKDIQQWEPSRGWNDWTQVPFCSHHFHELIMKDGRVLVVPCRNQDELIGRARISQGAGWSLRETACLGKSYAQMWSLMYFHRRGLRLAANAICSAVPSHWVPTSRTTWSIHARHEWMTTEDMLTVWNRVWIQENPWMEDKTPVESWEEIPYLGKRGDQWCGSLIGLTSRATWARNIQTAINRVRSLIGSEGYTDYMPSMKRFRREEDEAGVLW
Genome polyprotein (West Nile virus, UniProt P06935), sequence (P06935 2526-3430 limits assumed): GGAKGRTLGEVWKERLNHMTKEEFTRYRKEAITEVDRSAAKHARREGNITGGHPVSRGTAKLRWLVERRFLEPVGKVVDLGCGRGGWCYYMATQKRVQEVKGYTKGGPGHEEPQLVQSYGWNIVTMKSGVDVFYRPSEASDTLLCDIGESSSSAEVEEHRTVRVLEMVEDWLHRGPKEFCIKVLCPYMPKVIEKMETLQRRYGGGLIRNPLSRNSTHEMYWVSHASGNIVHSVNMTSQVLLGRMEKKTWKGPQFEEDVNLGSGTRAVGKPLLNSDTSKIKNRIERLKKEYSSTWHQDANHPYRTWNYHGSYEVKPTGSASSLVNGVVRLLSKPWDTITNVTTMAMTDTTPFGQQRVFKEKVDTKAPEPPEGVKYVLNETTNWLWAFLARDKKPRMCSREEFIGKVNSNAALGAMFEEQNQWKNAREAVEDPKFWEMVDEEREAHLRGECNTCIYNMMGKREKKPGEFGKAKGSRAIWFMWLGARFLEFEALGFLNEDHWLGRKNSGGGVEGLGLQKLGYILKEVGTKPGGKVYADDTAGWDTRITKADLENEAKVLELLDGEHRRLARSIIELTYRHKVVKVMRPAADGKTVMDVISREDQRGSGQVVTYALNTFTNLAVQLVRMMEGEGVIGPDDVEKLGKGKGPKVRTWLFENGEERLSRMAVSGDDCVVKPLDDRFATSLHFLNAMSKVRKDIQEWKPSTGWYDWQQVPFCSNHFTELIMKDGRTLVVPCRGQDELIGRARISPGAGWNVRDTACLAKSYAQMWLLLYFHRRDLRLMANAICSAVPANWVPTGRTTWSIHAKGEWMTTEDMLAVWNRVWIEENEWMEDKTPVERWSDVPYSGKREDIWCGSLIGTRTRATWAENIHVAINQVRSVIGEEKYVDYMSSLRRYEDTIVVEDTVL
Genome polyprotein (Zika virus, UniProt Q32ZE1), sequence (Q32ZE1 2517-3419 limits assumed): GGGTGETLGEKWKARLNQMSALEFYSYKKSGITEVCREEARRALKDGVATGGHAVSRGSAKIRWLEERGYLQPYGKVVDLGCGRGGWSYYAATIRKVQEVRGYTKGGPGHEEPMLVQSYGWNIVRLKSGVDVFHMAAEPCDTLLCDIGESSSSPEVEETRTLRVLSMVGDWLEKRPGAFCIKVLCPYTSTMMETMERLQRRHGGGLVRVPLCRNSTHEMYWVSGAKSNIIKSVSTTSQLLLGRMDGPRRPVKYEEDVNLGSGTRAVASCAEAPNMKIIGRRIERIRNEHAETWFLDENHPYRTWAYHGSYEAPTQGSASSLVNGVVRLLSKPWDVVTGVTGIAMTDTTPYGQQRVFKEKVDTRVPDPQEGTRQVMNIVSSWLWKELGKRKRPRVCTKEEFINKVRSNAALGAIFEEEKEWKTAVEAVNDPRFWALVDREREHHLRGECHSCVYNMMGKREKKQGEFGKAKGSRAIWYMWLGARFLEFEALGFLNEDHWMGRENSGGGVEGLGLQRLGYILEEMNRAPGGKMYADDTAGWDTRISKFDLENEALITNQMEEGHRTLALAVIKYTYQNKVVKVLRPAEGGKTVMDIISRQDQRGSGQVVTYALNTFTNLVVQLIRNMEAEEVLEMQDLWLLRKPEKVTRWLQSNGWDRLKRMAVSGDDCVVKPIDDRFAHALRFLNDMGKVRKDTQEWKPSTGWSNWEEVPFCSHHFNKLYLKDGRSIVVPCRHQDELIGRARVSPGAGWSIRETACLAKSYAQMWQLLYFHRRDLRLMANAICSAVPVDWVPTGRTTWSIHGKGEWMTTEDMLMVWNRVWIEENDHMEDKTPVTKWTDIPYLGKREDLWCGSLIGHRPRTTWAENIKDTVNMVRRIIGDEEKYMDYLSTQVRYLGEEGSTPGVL

What is called IC50 is the point on the concentration scale where inhibition reaches its midpoint. Regarding `Nc1cc(Cl)ccc1NC(=O)Nc1ccc(S(=O)(=O)Oc2ccc(C(=O)O)cc2)cc1`, the IC50 is 51 to 299 µM at Genome polyprotein [1], 31 µM on Genome polyprotein [2] and 368 µM on Nonstructural protein 5.

Regarding `Nc1cc(C(F)(F)F)ccc1NC(=O)Nc1ccc(S(=O)(=O)Nc2ccc(C(=O)O)cc2)cc1`, the concentration for half-maximal inhibition (IC50) was 51 to 299 µM on Genome polyprotein [1], 67 µM at Genome polyprotein [2] and 110 µM at Nonstructural protein 5.

Take `Nc1cc(C(F)(F)F)ccc1NC(=O)Nc1ccc(S(=O)(=O)Oc2cccc(CC(=O)Oc3cccc(CC(=O)O)c3)c2)cc1`: the Activity entry in the series on Vero C1008 is reported as “Non-Toxic”. The outcome in the series with Zika virus and in the series with dengue virus type 2 was inactive. Moreover, the IC50 on Genome polyprotein [2] amounted to 19 µM; at Nonstructural protein 5 it was 24 µM.

In the case of `O=C(Nc1cccc(S(=O)(=O)NCc2cccc(C(=O)O)c2)c1)Nc1ccc(C(F)(F)F)cc1[N+](=O)[O-]`, the IC50 came out at 136 µM on Genome polyprotein [2] and 400 µM on Nonstructural protein 5.

For orientation: CC50 means the concentration giving 50% cytotoxicity. On to `O=C(Nc1ccc(S(=O)(=O)NCc2cccc(C(=O)O)c2)cc1)Nc1ccc(C(F)(F)F)cc1[N+](=O)[O-]`, for which the cytotoxic concentration (CC50) in series [3] was 70 µM. In addition, the result with Zika virus and in the series on dengue virus type 2 was inactive. Also, the values for the half-maximal inhibitory concentration (IC50) on Genome polyprotein [2] and on Nonstructural protein 5 were 83 µM and 145 µM, respectively.

As to `Nc1cc(C(F)(F)F)ccc1NC(=O)Nc1ccc(S(=O)(=O)NCc2cccc(C(=O)O)c2)cc1`, in the series on Vero C1008, the Activity entry is “Non-Toxic”. The outcome in the series on Zika virus and in the series on dengue virus type 2 was inactive. Further, the IC50 at Genome polyprotein [2] stood at 61 µM; at Nonstructural protein 5 it was 174 µM.

In series [3], `O=C(O)Cc1cccc(OS(=O)(=O)c2ccc(NC(=O)Nc3ccc(C(F)(F)F)cc3[N+](=O)[O-])cc2)c1` had a 50% cytotoxic concentration (CC50) of 37.5 µM. Besides, the result in the series with Zika virus and with dengue virus type 2 was inactive. For the same compound, the IC50 came to 28 µM at Genome polyprotein [2] and 26 µM on Nonstructural protein 5.

Regarding `Nc1cc(C(F)(F)F)ccc1NC(=O)Nc1ccc(S(=O)(=O)Oc2cccc(CC(=O)O)c2)cc1`, the IC50 at Genome polyprotein [2] worked out at 111 µM; at Nonstructural protein 5 it was 276 µM.

With `Nc1cc(Cl)ccc1NC(=O)Nc1ccc(S(=O)(=O)Nc2ccc(C(=O)O)cc2)cc1`, the values for the IC50 on Genome polyprotein [1], at Genome polyprotein [2] and on Nonstructural protein 5 were 51 to 299 µM, 87 µM and 435 µM, respectively.

With `Nc1cc(C(F)(F)F)ccc1NC(=O)Nc1cccc(S(=O)(=O)NCc2ccc(C(=O)O)cc2)c1`, the IC50 amounted to 122 µM at Genome polyprotein [2] and 366 µM on Nonstructural protein 5.

Turning to `O=C(O)Cc1ccc(NS(=O)(=O)c2cccc(NC(=O)Nc3ccc(C(F)(F)F)cc3[N+](=O)[O-])c2)cc1`, the figures for the half-maximal inhibitory concentration (IC50) at Genome polyprotein [2] and on Nonstructural protein 5 were 185 µM and 181 µM, respectively.

Turning to `Nc1cc(C(F)(F)F)ccc1NC(=O)Nc1cccc(S(=O)(=O)NCc2cccc(C(=O)O)c2)c1`, the IC50 turned out to be 95 µM at Genome polyprotein [2] and 304 µM on Nonstructural protein 5.

In the case of `Nc1cc(C(F)(F)F)ccc1NC(=O)Nc1cccc(S(=O)(=O)Nc2ccc(CC(=O)O)cc2)c1`, the IC50 on Genome polyprotein [2] was 135 µM; on Nonstructural protein 5, 144 µM.

Consider `Nc1cc(Cl)ccc1NC(=O)Nc1cccc(S(=O)(=O)Nc2ccc(C(=O)O)cc2)c1`, for which the concentration for half-maximal inhibition (IC50) is 51 to 299 µM at Genome polyprotein [1], 221 µM on Genome polyprotein [2] and 452 µM on Nonstructural protein 5.

For `CN1CCC(CNS(=O)(=O)c2ccc(NC(=O)Nc3ccc(C(F)(F)F)cc3[N+](=O)[O-])cc2)C1` (stereo not drawn), the concentration for half-maximal inhibition (IC50) on Genome polyprotein [2] and on Nonstructural protein 5 was 400 µM throughout.

As to `Nc1cc(Cl)ccc1NC(=O)Nc1cccc(S(=O)(=O)Oc2ccc(C(=O)O)cc2)c1`, the values for the IC50 on Genome polyprotein [1], on Genome polyprotein [2] and on Nonstructural protein 5 were 51 to 299 µM, 33 µM and 369 µM, respectively.

With `Nc1cc(C(F)(F)F)ccc1NC(=O)Nc1cccc(S(=O)(=O)NCCCC(=O)O)c1`, the figures for the concentration for half-maximal inhibition (IC50) at Genome polyprotein [2] and on Nonstructural protein 5 were 132 µM and 342 µM, respectively.

Regarding `COC(=O)CCCNS(=O)(=O)c1cccc(NC(=O)Nc2ccc(C(F)(F)F)cc2[N+](=O)[O-])c1`, the concentration for half-maximal inhibition (IC50) on Genome polyprotein [2] and at Nonstructural protein 5 was 400 µM each time.

For `CN1CCC(CNS(=O)(=O)c2ccc(NC(=O)Nc3ccc(C(F)(F)F)cc3N)cc2)C1` (stereo not drawn), the IC50 on Genome polyprotein [2] and at Nonstructural protein 5 was 400 µM each time.

On to `Nc1cc(C(F)(F)F)ccc1NC(=O)Nc1cccc(S(=O)(=O)Nc2ccc(C(=O)O)cc2)c1`, for which the 50% inhibitory concentration (IC50) on Genome polyprotein [1] is 51 to 299 µM; on Genome polyprotein [2], 24 µM; on Nonstructural protein 5, 91 µM.
